Reference: PubChem BioAssay (NCI)
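Following 48 hours of exposure in 96-well plates, responses at five concentrations were used to interpolate endpoints linearly. GI50 = concentration required for 50% inhibition of growth. TGI marks complete inhibition of growth.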

Tests used:
Assay in all cases: NCI tumour cell line growth inhibition, 48 h
HCT-15 colon = tested on: HCT-15 colon
SF-268 CNS = tested on: SF-268 CNS
COLO 205 colon = tested on: COLO 205 colon
OVCAR-8 ovarian = tested on: OVCAR-8 ovarian
NCI-H460 lung = tested on: NCI-H460 lung
IGROV1 ovarian = tested on: IGROV1 ovarian
HCT-116 colon = tested on: HCT-116 colon
A549 NSCLC = tested on: A549 NSCLC
HT29 colon = tested on: HT29 colon
UACC-257 melanoma = tested on: UACC-257 melanoma

| Structure (SMILES) | GI50 (HCT-15 colon) | TGI (HCT-15 colon) | GI50 (SF-268 CNS) | TGI (SF-268 CNS) | GI50 (COLO 205 colon) | TGI (COLO 205 colon) | GI50 (OVCAR-8 ovarian) | TGI (OVCAR-8 ovarian) | GI50 (NCI-H460 lung) | TGI (NCI-H460 lung) | GI50 (IGROV1 ovarian) | TGI (IGROV1 ovarian) | GI50 (HCT-116 colon) | TGI (HCT-116 colon) | GI50 (A549 NSCLC) | TGI (A549 NSCLC) | GI50 (HT29 colon) | TGI (HT29 colon) | GI50 (UACC-257 melanoma) | TGI (UACC-257 melanoma) |
| --- | --- | --- | --- | --- | --- | --- | --- | --- | --- | --- | --- | --- | --- | --- | --- | --- | --- | --- | --- | --- |
| Cc1cc(NC(=O)C2c3ccccc3C(=O)N(CC(C)C)C2c2cccs2)no1 (stereo not given) | 70.6 µM | > 100 µM | > 100 µM | > 100 µM | > 100 µM | > 100 µM | > 100 µM | > 100 µM | > 100 µM | > 100 µM | > 100 µM | > 100 µM | 49.1 µM | > 100 µM | > 100 µM | > 100 µM | 69.5 µM | > 100 µM | > 100 µM | > 100 µM |
| Cn1cc(-c2ccc(=O)n(Cc3cccc(-c4ncc(OCCN5CCOCC5)cn4)c3)n2)cn1 | > 100 µM | > 100 µM | > 100 µM | > 100 µM | 53.7 µM | > 100 µM | 36.5 µM | > 100 µM | > 100 µM | > 100 µM | > 76.6 µM | > 100 µM | 56.5 µM | > 100 µM | 71.7 µM | > 100 µM | > 100 µM | > 100 µM | 48.7 µM | > 100 µM |
| O=C1c2ccccc2-c2c1c1ccccc1c(=O)n2CCO |  | > 100 µM |  | > 100 µM |  | > 100 µM |  | > 100 µM |  | 11.3 µM |  | > 100 µM |  | > 79.3 µM |  | > 100 µM |  | > 100 µM |  | > 100 µM |
| Cc1cc(C)nc(NS(=O)(=O)c2ccc(Nc3c4ccccc4nc4c(C(=O)Nc5ccc(S(N)(=O)=O)cc5)cccc34)cc2)n1 |  | > 100 µM |  | > 100 µM |  | > 100 µM |  | > 100 µM |  | > 100 µM |  | > 100 µM |  | > 100 µM |  | > 100 µM |  | > 100 µM |  | > 100 µM |
| Nc1cccc2c1C(=O)N(C1CCC(=O)NC1=O)C2=O (stereo not given) | > 100 µM | > 100 µM | > 100 µM | > 100 µM | > 100 µM | > 100 µM | > 100 µM | > 100 µM | > 100 µM | > 100 µM | > 100 µM | > 100 µM | > 100 µM | > 100 µM | > 100 µM | > 100 µM | > 100 µM | > 100 µM | > 100 µM | > 100 µM |
| CC1(C)CC(=O)C2=C(C1)NC(SSC1=C(C#N)C(c3ccccc3)C3=C(CC(C)(C)CC3=O)N1)=C(C#N)C2c1ccccc1 (stereo not given) | 26.8 µg/mL | 48.8 µg/mL | 28 µg/mL | 53.7 µg/mL | 29.5 µg/mL | 51.5 µg/mL | 31.6 µg/mL | 57.4 µg/mL | 27.7 µg/mL | 50.7 µg/mL | 28.3 µg/mL | 50.1 µg/mL | 26.3 µg/mL | 47 µg/mL | 50.5 µg/mL | > 150 µg/mL | 26.8 µg/mL | 48.2 µg/mL | 25.4 µg/mL | 46 µg/mL |
| O=C1C=C[C@]2(C[C@@H](c3cccc(C(F)(F)F)c3)O[C@@H](c3cccc(C(F)(F)F)c3)O2)O1 | 1.66 µM | 4.13 µM | 1.5 µM | 4.14 µM | 1.88 µM | 5.51 µM | 3.03 µM | 13.4 µM | 0.6 µM | 2.58 µM | 1.66 µM | 4.41 µM | 1.08 µM | 2.64 µM | 5.57 µM | 20.4 µM | 2.12 µM | 5.52 µM | 2.29 µM | 5.77 µM |
| NC(N)=NS(=O)(=O)c1ccc(NC(=O)c2cccc3c(Nc4ccc(S(=O)(=O)N=C(N)N)cc4)c4ccc(Cl)cc4nc23)cc1 |  | > 100 µM |  | > 100 µM |  | > 100 µM |  | > 100 µM |  | > 100 µM |  | > 100 µM |  | > 100 µM |  | > 100 µM |  | > 100 µM |  | > 100 µM |
| COc1c(OC(C)=O)ccc(/C=C2\N=C(C)OC2=O)c1[N+](=O)[O-] |  | > 100 µM |  | > 100 µM |  | > 100 µM |  | > 100 µM |  | > 100 µM |  | > 100 µM |  | > 100 µM |  | > 100 µM |  | > 100 µM |  | > 100 µM |
| COC(=O)[C@]12CC[C@@H](C)[C@H](C)[C@@H]1C1=CC[C@@H]3[C@@]4(C)CC(=O)[C@H](O)[C@@]5(C)COC(=C45)C[C@@]3(C)[C@]1(C)CC2 | 18 µM | 33.4 µM | 19.2 µM | 37.8 µM | 17.9 µM | 33.5 µM | 19.6 µM | 39.2 µM | 18.8 µM | 37.5 µM | 19.3 µM | 37.6 µM | 18.7 µM | 34.3 µM | 23.9 µM | 41.5 µM | 19.2 µM | 34.7 µM | 19.2 µM | 33.4 µM |
| Nc1nc(N)[n+]([O-])c(N)c1NCO |  | > 100 µM |  | > 100 µM |  | > 100 µM |  | > 100 µM |  | > 100 µM |  | > 100 µM |  | > 100 µM |  | > 100 µM |  | > 100 µM |  | > 100 µM |
| CC1(C)N=C(N)N=C(N)N1c1cccc(/C=C/C=C/c2cccc([N+](=O)[O-])c2)c1 | 98.1 µM | > 100 µM | 3.64 µM | 17.4 µM | 4.4 µM | 19.8 µM | 13.8 µM | 30 µM | 2.85 µM | 15.3 µM | 1.18 µM | 13.7 µM | 3.16 µM | 30.4 µM | 3.9 µM | 24 µM | 1.59 µM | 14.7 µM | 5.42 µM | 20.2 µM |
| O=[N+]([O-])c1ccc(-c2ccc(/C=N/n3c(-c4ccc(Cl)cc4)n[nH]c3=S)o2)cc1 |  | > 100 µM |  | > 100 µM |  | > 75.5 µM |  | > 100 µM |  | > 54.7 µM |  | > 100 µM |  | 43.6 µM |  | > 64.6 µM |  | > 55.2 µM |  | > 100 µM |
| O=C(c1cccs1)c1c(C(F)(F)F)n([O-])c2ccc(C(F)(F)F)cc2[n+]1=O | 0.286 µM | 0.73 µM | 0.182 µM | 0.355 µM | 0.328 µM | 0.909 µM | 0.116 µM | 0.479 µM | 0.205 µM | 0.407 µM | 0.132 µM | 0.278 µM | 0.17 µM | 0.314 µM | 0.134 µM | 0.31 µM | 0.19 µM | 0.364 µM | 1.59 µM | 3.15 µM |
